Data from article PMC9525273 (Nature Communications, 2022).
Several values for one entry are separate records, joined by “and”; a condition that tells them apart may be missing. Identical values can stand only once. Like-named read-outs stand apart in the source and are kept apart here.

Tests used:
[1] = molecular target: T1, PfATP4^G358S (membranes from Dd2-Polδ-PfATP4^G358S parasites) (Plasmodium falciparum, UniProt A0A143ZZK9, G358S); experiment: Membrane ATPase assay, ATP4-associated (Na+-dependent) ATPase activity; type: biochemical; set-up: IC50 for inhibition of ATP4-associated ATPase activity, MEAN / IC50 for inhibition of ATP4-associated ATPase activity: unit: nM
T1 sequence (A0A143ZZK9 1-1264 G358S): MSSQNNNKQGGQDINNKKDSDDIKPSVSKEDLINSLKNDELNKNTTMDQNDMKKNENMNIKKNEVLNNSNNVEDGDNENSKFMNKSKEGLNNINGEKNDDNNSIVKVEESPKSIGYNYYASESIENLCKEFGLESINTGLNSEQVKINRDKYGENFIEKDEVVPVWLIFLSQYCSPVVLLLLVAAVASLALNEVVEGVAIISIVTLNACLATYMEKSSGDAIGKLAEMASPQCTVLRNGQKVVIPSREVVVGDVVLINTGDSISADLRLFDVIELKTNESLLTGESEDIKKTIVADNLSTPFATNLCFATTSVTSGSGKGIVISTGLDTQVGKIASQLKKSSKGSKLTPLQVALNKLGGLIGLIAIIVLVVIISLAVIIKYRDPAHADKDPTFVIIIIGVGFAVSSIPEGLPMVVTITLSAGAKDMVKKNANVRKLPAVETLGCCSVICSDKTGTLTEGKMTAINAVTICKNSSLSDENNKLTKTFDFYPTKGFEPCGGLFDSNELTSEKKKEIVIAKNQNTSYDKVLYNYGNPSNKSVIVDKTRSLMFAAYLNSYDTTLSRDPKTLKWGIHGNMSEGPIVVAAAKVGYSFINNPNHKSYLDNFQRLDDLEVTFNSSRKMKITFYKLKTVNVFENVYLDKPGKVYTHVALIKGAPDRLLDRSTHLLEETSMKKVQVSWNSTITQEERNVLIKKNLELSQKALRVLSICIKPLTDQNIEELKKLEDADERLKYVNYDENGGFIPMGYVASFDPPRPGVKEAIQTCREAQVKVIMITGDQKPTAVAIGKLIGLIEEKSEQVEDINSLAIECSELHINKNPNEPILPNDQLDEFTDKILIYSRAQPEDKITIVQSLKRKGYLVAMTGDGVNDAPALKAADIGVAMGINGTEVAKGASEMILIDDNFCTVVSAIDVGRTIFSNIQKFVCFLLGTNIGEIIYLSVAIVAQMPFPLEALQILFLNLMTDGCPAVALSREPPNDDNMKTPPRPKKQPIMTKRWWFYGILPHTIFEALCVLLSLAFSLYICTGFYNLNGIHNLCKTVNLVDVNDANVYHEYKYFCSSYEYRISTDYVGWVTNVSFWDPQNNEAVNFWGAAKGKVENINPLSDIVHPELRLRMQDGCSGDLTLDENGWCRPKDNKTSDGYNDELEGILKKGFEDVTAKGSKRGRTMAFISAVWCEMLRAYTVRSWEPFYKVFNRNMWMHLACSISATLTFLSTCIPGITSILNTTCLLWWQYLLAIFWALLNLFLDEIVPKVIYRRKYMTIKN
Description: Membranes from isolated P. falciparum or extracellular T. gondii parasites were prepared by lysing parasites in ice-cold deionized water containing a 1:500 dilution of Protease Inhibitor Cocktail Set III (Merck Millipore), then washing the membrane preparation three times in ice-cold deionized water (with protease inhibitors present for the first two washes)[15]. Protein concentrations in the membrane preparations were measured using a Bradford assay. The PiColorLock Gold Phosphate Detection System (Innova Biosciences) was used to measure the production of Pi from hydrolysis of ATP[15]. Membrane preparations were diluted in either a high Na^+ solution (yielding final conditions in the reactions of 150 mM NaCl, 20 mM KCl, 2 mM MgCl2, 50 mM Tris, pH 7.2) or a Na^+-free solution (yielding final conditions of 150 mM choline chloride, 20 mM KCl, 2 mM MgCl2, 50 mM Tris, pH 7.2) to achieve a total protein concentration of 50 μg/mL. […] The reactions were performed at 37 °C, and were initiated by the addition of 1 mM ATP (Na2ATP۰3H2O; MP Biomedicals) and terminated 10 min later by adding 100 μL of reaction mixture (in duplicate) to 25 μL “Gold mix” in a 96-well plate. […] Background values (averaged from wells containing all components, but to which ATP was not added until after the membrane was exposed to Gold mix) were subtracted from the data. For each treatment, the ATPase activity associated with the (Na^+-dependent) PfATP4 and TgATP4 proteins was calculated by subtracting data obtained in the low Na^+ condition (containing only the 2 mM Na^+ introduced on addition of 1 mM Na2ATP) from that obtained in the high Na^+ condition.

NF54^G358S-2 parasites = experiment: P. falciparum proliferation assay (72 h, flow cytometry, SYBR Green I/MitoTracker); type: cell-based, Plasmodium falciparum
Summary of the method: (§1)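 Predominantly ring-stage cultures at 0.3% parasitaemia, 1% haematocrit, in medium with 10% O+ human serum; compound exposure 72 h, DMSO <0.5% (v/v). Live parasites counted by flow cytometry with SYBR Green I and 200 nM MitoTracker Deep Red. IC50/IC90 from linear interpolation of dose-response data.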

NF54^CTL parasites = experiment: as above; type: cell-based, Plasmodium falciparum; details: for IC50: NF54, NF54CTL
Summary of the method: as §1

Compound: C[C@H]1Cc2c([nH]c3cc(Cl)c(F)cc23)[C@@]2(N1)C(=O)Nc1ccc(Cl)cc12 [Cipargamin]
- IC50 for inhibition of ATP4-associated ATPase activity, MEAN ([1]; Dd2-Polδ-PfATP4G358S membranes, MEAN, source data of Table 1 (nM there)): 99.4
- IC50 for ATP4-associated ATPase activity ([1]; membranes from Dd2-Polδ-PfATP4G358S, mean ± SEM): 99 ± 21 (4) (P = 0.004) nM
- IC50 (NF54^G358S-2 parasites; NF54G358S-2, single experiments, source data of Fig. 2 (nM in Supplementary Table 5), read-out: IC50 values): 1750 nM and 2010 nM and 2430 nM
- FC (IC50) (NF54^G358S-2 parasites; NF54G358S-2 compared to NF54WT): 751.9 fold
- FC (IC90) (NF54^G358S-2 parasites; NF54G358S-2 compared to NF54WT): 903.4 fold
- IC90 (NF54^G358S-2 parasites; NF54G358S-2 parasites, individual experiments, read-out: IC90 values): 3.35 µM and 3.42 µM and 3.53 µM
- IC90 (NF54^G358S-2 parasites; Plasmodium falciparum, NF54, NF54G358S-2, 10% human serum, read-out: IC90 ± SEM): 3.43 ± 0.0367 µM
- IC50 (NF54^G358S-2 parasites; Plasmodium falciparum, NF54, NF54G358S-2, MEAN, source data of Fig. 2, read-out: IC50 values, MEAN): 1980 nM
- IC50 (NF54^G358S-2 parasites; Plasmodium falciparum, NF54, NF54G358S-2, single experiments, source data of Fig. 2 (nM in Supplementary Table 5), read-out: IC50 values): 1750 nM
- IC90 (NF54^G358S-2 parasites; Plasmodium falciparum, NF54, NF54G358S-2 parasites, individual experiments, read-out: IC90 values): 3.43 µM
- IC90 (NF54^G358S-2 parasites; Plasmodium falciparum, NF54, NF54G358S-2 parasites, mean of the experiments, read-out: IC90 values, MEAN): 3.43 µM
- FC (IC50) (NF54^CTL parasites; NF54CTL compared to NF54WT): 1.0 fold
- FC (IC90) (NF54^CTL parasites; NF54CTL compared to NF54WT): 1.0 fold
- IC90 (NF54^CTL parasites; NF54CTL parasites, individual experiments, read-out: IC90 values): 0.0036 µM and 0.0034 µM
- IC90 (NF54^CTL parasites; Plasmodium falciparum, NF54, NF54CTL parasites, individual experiments, read-out: IC90 values): 0.0041 µM
- IC90 (NF54^CTL parasites; Plasmodium falciparum, NF54, NF54CTL parasites, mean of the experiments, read-out: IC90 values, MEAN): 0.0037 µM
- IC50 (NF54^CTL parasites; Plasmodium falciparum, 10% human serum, read-out: IC50 ± SEM): 0.0026 ± 0.0001 µM
- IC50 (NF54^CTL parasites; Plasmodium falciparum, MEAN, source data of Fig. 2, read-out: IC50 values, MEAN): 0.00255 µM
